These results are taken from patent US4410512A, “Combinations having synergistic pituitary growth hormone releasing activity” (Beckman Instruments, Inc., priority 1981, dated 1983).

Square brackets hold non-standard residues; d marks the D form. Peptide text beside a SMILES is read from it.

This assay has as its system pituitaries. The assay is described as follows: In vitro growth hormone release study (incubated rat pituitaries, GH by RIA). The class given is cell-based. The following applies: mean of 9 assays ± SEM. Here is the method: Female rats of the CD-1 strain were housed in a constant temperature room at 24° C. with 14 hours light and 10 hours darkness. The rats were fed Purina brand rat chow ab libitum. All studies were started between 0800 and 1000 hours.
Pituitaries were removed from 20 day old female rats. In each polytetrafluoroethylene beaker (10 ml) was incubated two pituitaries at 36° C. in 1 ml of lactated Ringer's solution in a Dubnoff Shaker (90 cycles/min.). All medium in each beaker was removed each hour (e.g., P1, P2, I3, I4, I5) and then fresh medium was added back to each beaker. Each medium removed was assayed for GH, in duplicate, by a standard radioimmunoassay (RIA).
The growth hormone agonist of Example 1 was not added to the incubation mediums employed during the first hour of the incubation period (P1) or to the incubation mediums employed during the second hour of the incubation period (P2). The growth hormone agonist of Example 1 was dissolved in dimethylsulfoxide (DMSO; 10:1, agonist:DMSO), added to each incubation medium employed during the third hour of the incubation period (I3), to each medium employed during the fourth hour of the incubation period (I4), and to each medium employed during the fifth hour of the incubation period (I5). The release of growth hormone was recorded as ΔGH and calculated by subtracting the amount of GH released at P2 from that released at I3, I4, and I5. The agonist activity was determined from the release at I3, I4, and I5.

Consider `C[C@H]1CCC[C@H](O)CCCCCc2cc(O)cc(O)c2C(=O)O1` [Zeranol, zeranol], for which the ΔGH reads like this: (zeranol dosage 300 ng/ml incubation medium, pituitaries of 20 day old female rats, I3-I5 minus P2) 83 ± 63 ng/ml incubation medium; (zeranol dosage 3,000 ng/ml incubation medium) 87 ± 59 ng/ml incubation medium; (zeranol dosage 30,000 ng/ml incubation medium) 683 ± 187 ng/ml incubation medium; (zeranol dosage 100,000 ng/ml incubation medium) -133 ± 98 ng/ml incubation medium.
Regarding `C[C@H](NC(=O)[C@@H](Cc1c[nH]c2ccccc12)NC(=O)[C@@H](N)Cc1c[nH]cn1)C(=O)N[C@@H](Cc1c[nH]c2ccccc12)C(=O)N[C@H](Cc1ccccc1)C(=O)N[C@@H](CCCCN)C(N)=O` [H2 -His-D-Trp-Ala-Trp-D-Phe-Lys-NH2] (H-H[dW]AW[dF]K-NH2), the ΔGH was 887 ± 98 ng/ml incubation medium (peptide dosage 1 ng/ml incubation medium), 821 ± 138 ng/ml incubation medium (peptide dosage 3 ng/ml incubation medium) and 2,759 ± 315 ng/ml incubation medium (peptide dosage 10 ng/ml incubation medium).
